Consider eleven compounds from patent US9006487B2, “Amine-containing lipids and uses thereof” (Massachusetts Institute of Technology, priority 2005, dated 2015).

Experiment [1] has as its system cos-7 cells. Kind of experiment: DNA transfection: luciferase expression relative to Lipofectamine 2000. The note with it: for luciferase expression (second part of table, values relative to LIPO2000): 300 ng of DNA per well. Type of experiment: cell-based. The gist of the method: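 cos-7 cells were transfected with 300 ng/well luciferase DNA complexed with lipid at ratios from 2.5 to 25 w/w. Bright-Glo luminescence was read after 48 hours and converted to ng luciferase by standard curve. Data are percent of the Lipofectamine 2000 control (2.5 w/w).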

Experiment [2] can be described thus: DNA delivery: raw luciferase expression (relative light units) of best-transfecting lipids. The note with it: 300 ng of DNA per well. Type of experiment: cell-based. On the procedure: Raw values for luciferase expression (relative lights units) of best-transfecting lipids at lipid/DNA (w/w) ratios listed. 300 ng of DNA was added per well.
Setting [3] is: 1st column, no head printed (2.5 w/w by the raw values).
[4] abbreviates: 2nd column, no head printed (5 w/w by the raw values).
[5] abbreviates: 3rd column, no head printed (10 w/w by the raw values).
[6] abbreviates: 4th column, no head printed (15 w/w by the raw values).

Values joined by “and” are separate entries in the source; they are usually repeats but may differ in a detail not shown here. Equal entries are not always repeated.

Regarding `CCCCCCCCCCCCNC(=O)CCN(CCC(=O)NCCCCCCCCCCCC)CC(O)CO` (centres unmarked) [ND24], the “luciferase expression (second part of table, values relative to LIPO2000)” value was determined as 157.6 in experiment [1] (lipid/DNA 2.5 w/w); 30.5 in experiment [1] (lipid/DNA 5 w/w); 2.4 in experiment [1] (lipid/DNA 10 w/w); 0.2 in experiment [1] (lipid/DNA 15 w/w); 0.0 in experiment [1] (lipid/DNA 20 w/w); 0.0 in experiment [1] (lipid/DNA 25 w/w). Also, the entries for the “Raw values for luciferase expression” value in experiment [2] (lipid/DNA 2.5 w/w) and in experiment [2] (lipid/DNA 5 w/w) were 5256861 relative lights units and 1231973 relative lights units, respectively.
`CCCCCCCCCCCCNC(=O)CCN(CCC(=O)NCCCCCCCCCCCC)C(CO)CO` [ND25]: the “luciferase expression (second part of table, values relative to LIPO2000)” value was 226.4 in experiment [1] (lipid/DNA 2.5 w/w); 125.8 in experiment [1] (lipid/DNA 5 w/w); 19.5 in experiment [1] (lipid/DNA 10 w/w); 0.5 in experiment [1] (lipid/DNA 15 w/w); 0.0 in experiment [1] (lipid/DNA 20 w/w); 0.0 in experiment [1] (lipid/DNA 25 w/w). In addition, the “Raw values for luciferase expression” value in experiment [2] (lipid/DNA 2.5 w/w) was 7548491 relative lights units; in experiment [2] (lipid/DNA 5 w/w), 5088120 relative lights units.
With `CCCCCCCCCCCCNC(=O)CCN(CCOCCO)CCC(=O)NCCCCCCCCCCCC` [ND31], the “luciferase expression (second part of table, values relative to LIPO2000)” value in experiment [1] (lipid/DNA 2.5 w/w) turned out to be 7.7; in experiment [1] (lipid/DNA 5 w/w), 5.6; in experiment [1] (lipid/DNA 10 w/w) it was 47.6; in experiment [1] (lipid/DNA 15 w/w), 44.9; in experiment [1] (lipid/DNA 20 w/w), 7.6; in experiment [1] (lipid/DNA 25 w/w) it was 19.7. The “Raw values for luciferase expression” value in experiment [2] (lipid/DNA 10 w/w) is 1154404 relative lights units; in experiment [2] (lipid/DNA 15 w/w), 936815 relative lights units.
For the compound `CCCCCCCCCCCCNC(=O)CCN(CCCCCO)CCC(=O)NCCCCCCCCCCCC` [ND32], the “luciferase expression (second part of table, values relative to LIPO2000)” value stood at 531.2 in experiment [1] (lipid/DNA 2.5 w/w); 67.9 in experiment [1] (lipid/DNA 5 w/w); 1.1 in experiment [1] (lipid/DNA 10 w/w); 0.1 in experiment [1] (lipid/DNA 15 w/w); 0.0 in experiment [1] (lipid/DNA 20 w/w); 0.0 in experiment [1] (lipid/DNA 25 w/w). The “Raw values for luciferase expression” value in experiment [2] (lipid/DNA 2.5 w/w) was found to be 17713202 relative lights units; in experiment [2] (lipid/DNA 5 w/w), 2745231 relative lights units.
Regarding `CCCCCCCCCCCCNC(=O)CCN(CCCCCCO)CCC(=O)NCCCCCCCCCCCC` [ND36], the “luciferase expression (second part of table, values relative to LIPO2000)” value is recorded as 135.5 in experiment [1] (lipid/DNA 2.5 w/w); 72.8 in experiment [1] (lipid/DNA 5 w/w); 84.3 in experiment [1] (lipid/DNA 10 w/w); 31.6 in experiment [1] (lipid/DNA 15 w/w); 0.8 in experiment [1] (lipid/DNA 20 w/w); 0.0 in experiment [1] (lipid/DNA 25 w/w). For the same compound, the “Raw values for luciferase expression” value is recorded as 4517622 relative lights units in experiment [2] (lipid/DNA 2.5 w/w), 2945357 relative lights units in experiment [2] (lipid/DNA 5 w/w), 2043526 relative lights units in experiment [2] (lipid/DNA 10 w/w) and 658985 relative lights units in experiment [2] (lipid/DNA 15 w/w).
As to `CCCCCCCCCCCCCCNC(=O)CCN(C)CCN(C)CCC(=O)NCCCCCCCCCCCCCC` [NF60], the “luciferase expression (second part of table, values relative to LIPO2000)” value was found to be 6.8 in experiment [1] (lipid/DNA 2.5 w/w), 21.9 in experiment [1] (lipid/DNA 5 w/w), 28.9 in experiment [1] (lipid/DNA 10 w/w) and 49.1 in experiment [1] (lipid/DNA 15 w/w). The figures for the “Raw values for luciferase expression” value in experiment [2] (lipid/DNA 10 w/w) and in experiment [2] (lipid/DNA 15 w/w) were 2401570 relative lights units and 3739668 relative lights units, respectively.
Regarding `CCCCCCCCCCCCCCNC(=O)CCN(CC)CCN(CC)CCC(=O)NCCCCCCCCCCCCCC` [NF61], the “luciferase expression (second part of table, values relative to LIPO2000)” value came to 63.9 in experiment [1] (lipid/DNA 2.5 w/w), 67.7 in experiment [1] (lipid/DNA 5 w/w), 7.0 in experiment [1] (lipid/DNA 10 w/w) and 2.9 in experiment [1] (lipid/DNA 15 w/w). The “luciferase expression, second set of columns (replicate set of data)” value in experiment [1] (setting [3]) was 5.2; in experiment [1] (setting [4]) it was 38.9; in experiment [1] (setting [5]) it was 8.6; in experiment [1] (setting [6]) it was 1.1. Also, the “Raw values for luciferase expression” value in experiment [2] (lipid/DNA 5 w/w) is 3689556 relative lights units and 3053999 relative lights units.
In the case of `CCCCCCCCCCCCCCNC(=O)CCN(CC)CCCN(CC)CCC(=O)NCCCCCCCCCCCCCC` [NF64], the “luciferase expression (second part of table, values relative to LIPO2000)” value in experiment [1] (lipid/DNA 2.5 w/w) was found to be 5.7; in experiment [1] (lipid/DNA 5 w/w), 41.9; in experiment [1] (lipid/DNA 10 w/w) it was 0.3; in experiment [1] (lipid/DNA 15 w/w), 0.1. The “Raw values for luciferase expression” value in experiment [2] (lipid/DNA 2.5 w/w) was 384317 relative lights units; in experiment [2] (lipid/DNA 5 w/w), 2283250 relative lights units.
As for `CCCCCCCCCCCCCCNC(=O)CCN(CCC(=O)NCCCCCCCCCCCCCC)CCN(CCO)CCO` [NF86], the “luciferase expression (second part of table, values relative to LIPO2000)” value in experiment [1] (lipid/DNA 2.5 w/w) is 56.7; in experiment [1] (lipid/DNA 5 w/w) it was 53.3; in experiment [1] (lipid/DNA 10 w/w), 4.5; in experiment [1] (lipid/DNA 15 w/w), 2.3. In addition, the “Raw values for luciferase expression” value in experiment [2] (lipid/DNA 2.5 w/w) was 4798383 relative lights units; in experiment [2] (lipid/DNA 5 w/w), 4087285 relative lights units.
For the compound `CCCCCCCCCCCCCCNC(=O)CCN(CCCN(CCO)CCO)CCC(=O)NCCCCCCCCCCCCCC` [NF87], the “luciferase expression (second part of table, values relative to LIPO2000)” value came out at 46.1 in experiment [1] (lipid/DNA 2.5 w/w), 44.8 in experiment [1] (lipid/DNA 5 w/w), 0.3 in experiment [1] (lipid/DNA 10 w/w) and 0.0 in experiment [1] (lipid/DNA 15 w/w). Moreover, the entries for the “Raw values for luciferase expression” value in experiment [2] (lipid/DNA 2.5 w/w) and in experiment [2] (lipid/DNA 5 w/w) were 3904993 relative lights units and 3436007 relative lights units, respectively.
Turning to `CCCCCCCCCCCCCCNC(=O)CCN(C)CCN(CCC(=O)NCCCCCCCCCCCCCC)CCC(=O)NCCCCCCCCCCCCCC` [NF95], the “luciferase expression (second part of table, values relative to LIPO2000)” value in experiment [1] (lipid/DNA 2.5 w/w) is reported as 131.6; in experiment [1] (lipid/DNA 5 w/w), 141.8; in experiment [1] (lipid/DNA 10 w/w) it was 100.5; in experiment [1] (lipid/DNA 15 w/w), 33.9. Besides, the “luciferase expression, second set of columns (replicate set of data)” value in experiment [1] (setting [3]) turned out to be 6.0; in experiment [1] (setting [4]) it was 9.4; in experiment [1] (setting [5]), 4.7; in experiment [1] (setting [6]), 12.1. For the same compound, the “Raw values for luciferase expression” value in experiment [2] (lipid/DNA 5 w/w) was 2082965 relative lights units and 3775212 relative lights units; in experiment [2] (lipid/DNA 10 w/w), 1906488 relative lights units; in experiment [2] (lipid/DNA 15 w/w) it was 918612 relative lights units.
